According to PubChem BioAssay (NCI):
“And” between values parts separate entries of the source, which are not always exact repeats. Identical values can stand only once.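 1) Cells in 96-well plates. 2) Compound, 48 h, 5 concentrations. 3) Linear interpolation between surrounding doses. 4) Unreached endpoint = highest concentration. Here, GI50 denotes the concentration required for 50% inhibition of growth. TGI denotes the concentration required for complete inhibition of growth.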

Experiments:
Assay in all cases: DTP human tumour cell line panel, 48 h
[1] = test system: CAKI-1 renal
[2] = test system: IGROV1 ovarian
[3] = test system: KM12 colon
[4] = test system: MOLT-4 leukemia
[5] = test system: NCI-H460 lung
[6] = test system: NCI-H522 lung
[7] = test system: OVCAR-5 ovarian
[8] = test system: SF-268 CNS
[9] = test system: SK-MEL-2 melanoma
[10] = test system: SK-OV-3 ovarian

SMILES: COC1=CC(c2ccc[nH]2)=N/C1=C\c1ccc[nH]1
- GI50 [1]: 0.151 µM
- TGI [1]: 3.26 µM
- GI50 [2]: 0.172 µM
- TGI [2]: 4.7 µM
- GI50 [3]: 0.0698 µM
- TGI [3]: 12.8 µM
- GI50 [4]: 0.0317 µM
- TGI [4]: 33.7 µM
- GI50 [5]: 0.0595 µM
- TGI [5]: 10.9 µM
- GI50 [6]: 0.284 µM
- TGI [6]: 2.68 µM
- GI50 [7]: 0.683 µM
- TGI [7]: 13.7 µM
- GI50 [8]: 0.254 µM
- TGI [8]: 15.9 µM
- GI50 [9]: 0.218 µM
- TGI [9]: 0.809 µM
- GI50 [10]: 5.37 µM
- TGI [10]: 18.6 µM

SMILES: NS(=O)(=O)c1ccc(CCN=C=S)cc1
- GI50 [1]: 1.53 µM
- TGI [1]: 3.03 µM
- GI50 [2]: 2.1 µM
- TGI [2]: 4.96 µM
- GI50 [3]: 1.47 µM
- TGI [3]: 3.06 µM
- GI50 [4]: 3.05 µM
- TGI [4]: > 100 µM
- GI50 [5]: 3.53 µM
- TGI [5]: 13.1 µM
- GI50 [6]: 1.37 µM
- TGI [6]: 3.57 µM
- GI50 [7]: 1.85 µM
- TGI [7]: 3.78 µM
- GI50 [8]: 2.83 µM
- TGI [8]: 10.1 µM
- GI50 [9]: 2.3 µM
- TGI [9]: 5.84 µM
- GI50 [10]: 18.2 µM
- TGI [10]: 32.4 µM

SMILES: Nc1c(-c2ccc(Cl)cc2Cl)[n+]([O-])c2ccccc2[n+]1[O-]
- TGI [1]: > 100 µM
- TGI [2]: > 100 µM
- TGI [3]: > 100 µM
- TGI [4]: > 100 µM
- TGI [5]: > 100 µM
- TGI [6]: > 100 µM
- TGI [7]: > 100 µM
- TGI [8]: > 100 µM
- TGI [9]: > 100 µM
- TGI [10]: > 100 µM

SMILES: CS(=O)(=O)Nc1ccc(Nc2c3ccccc3nc3ccccc23)cc1
- TGI [1]: 6.94 µM
- TGI [2]: 18.9 µM
- TGI [3]: 24.7 µM
- TGI [4]: 10.4 µM
- TGI [5]: 6.95 µM
- TGI [6]: 13.7 µM
- TGI [7]: 21 µM
- TGI [8]: 24.5 µM
- TGI [9]: 16.1 µM
- TGI [10]: 16.1 µM

SMILES: CO[C@@H]1[C@H](OC(=O)NC(=O)CCl)CC[C@]2(CO2)[C@H]1[C@@]1(C)O[C@@H]1CC=C(C)C
- GI50 [1]: 29.6 µM
- TGI [1]: 25.7 µM and 59.1 µM
- TGI [2]: 33 µM and 43.4 µM
- GI50 [3]: 3.36 µM
- TGI [3]: 27.2 µM and 28.6 µM
- GI50 [4]: 3.31 µM
- TGI [4]: 28.2 µM and 8.2 µM
- GI50 [5]: 0.755 µM and 2.6 µM
- TGI [5]: 24.2 µM and 49.6 µM
- GI50 [6]: 1.23 µM and 7.41 µM
- TGI [6]: 3.99 µM and 16.8 µM and 33.8 µM
- GI50 [7]: 3.44 µM
- TGI [7]: 35.2 µM
- GI50 [8]: 20 µM
- TGI [8]: 33.6 µM and 74.5 µM
- GI50 [9]: 23 µM
- TGI [9]: 35.5 µM and 68.6 µM
- GI50 [10]: 2.52 µM and 20.8 µM
- TGI [10]: 39.5 µM and 59.2 µM

SMILES: COc1ccc2c(c1)CC[C@@H]1[C@@H]2CC[C@]2(C)C(c3ccco3)=C(C=O)C[C@@H]12
- GI50 [1]: 2.5 µM
- TGI [1]: 7.59 µM
- GI50 [2]: 27 µM
- TGI [2]: 78 µM
- GI50 [3]: 3.35 µM
- TGI [3]: 12.2 µM
- GI50 [4]: 7.27 µM
- TGI [4]: 38.6 µM
- GI50 [5]: 5.75 µM
- TGI [5]: 35.7 µM
- GI50 [6]: 21.1 µM
- TGI [6]: > 100 µM
- GI50 [7]: 30.5 µM
- TGI [7]: 94.1 µM
- GI50 [8]: 13.6 µM
- TGI [8]: > 100 µM
- GI50 [9]: 29.2 µM
- TGI [9]: 88.1 µM
- GI50 [10]: 28.9 µM
- TGI [10]: 77.7 µM

SMILES: COC(=O)[C@]1(C)CCC[C@@]2(C)C1CCC1=CC3(C(C)C)CCC12OO3 (some centres undefined)
- TGI [1]: > 100 µM
- TGI [2]: > 100 µM
- TGI [3]: > 100 µM
- TGI [4]: > 100 µM
- TGI [5]: > 100 µM
- TGI [6]: > 100 µM
- TGI [7]: > 100 µM
- TGI [8]: > 100 µM
- TGI [9]: > 100 µM
- TGI [10]: > 100 µM

SMILES: COc1ccccc1CNCCCN1C(=O)c2ccc3c4c(ccc(c24)C1=O)C(=O)N(CCCNCCCN)C3=O
- GI50 [1]: 1.11 µM
- TGI [1]: 5.77 µM
- GI50 [2]: 0.272 µM
- TGI [2]: 2.72 µM
- GI50 [3]: 0.705 µM
- TGI [3]: 4.14 µM
- GI50 [4]: 0.182 µM
- TGI [4]: 1.99 µM
- GI50 [5]: 0.146 µM
- TGI [5]: 1.41 µM
- GI50 [6]: 0.471 µM
- TGI [6]: 2.31 µM
- GI50 [7]: 1.41 µM
- TGI [7]: 7.36 µM
- GI50 [8]: 0.41 µM
- TGI [8]: 6.37 µM
- GI50 [9]: 0.907 µM
- TGI [9]: 3.03 µM
- GI50 [10]: 1.01 µM
- TGI [10]: 4.66 µM

SMILES: COC(=O)CCC/C=C\C[C@H]1C=CC(=O)/C1=C/C[C@@H](O)C/C=C\CC(F)(F)F
- GI50 [1]: 4.07 µM
- TGI [1]: 14.8 µM
- GI50 [2]: 2.78 µM
- TGI [2]: 7.6 µM
- GI50 [3]: 1.97 µM
- TGI [3]: 5.65 µM
- GI50 [4]: 0.773 µM
- TGI [4]: 4.22 µM
- GI50 [5]: 3.04 µM
- TGI [5]: 10.6 µM
- GI50 [6]: 1.06 µM
- TGI [6]: 2.57 µM
- GI50 [7]: 3.42 µM
- TGI [7]: 9.65 µM
- GI50 [8]: 2.84 µM
- TGI [8]: 13.8 µM
- GI50 [9]: 2.55 µM
- TGI [9]: 7.53 µM
- GI50 [10]: 5.55 µM
- TGI [10]: 16.5 µM

SMILES: COc1ccc(/C(C)=N/OC(=O)c2c(-c3ccccc3Cl)noc2C)cc1CN1CCOCC1
- TGI [1]: > 100 µM
- TGI [2]: 65.6 µM
- TGI [3]: 70.5 µM
- TGI [4]: > 100 µM
- TGI [5]: > 100 µM
- TGI [6]: 48.3 µM
- TGI [7]: 45.9 µM
- TGI [8]: > 100 µM
- TGI [9]: 34.2 µM
- TGI [10]: > 100 µM

SMILES: COc1cc(-n2cc(-c3ccc(Cl)cc3)[nH]c2=O)cc(OC)c1OC
- GI50 [1]: 16.2 µM
- TGI [1]: 35.6 µM
- GI50 [2]: 35.5 µM
- TGI [2]: > 100 µM
- GI50 [3]: 41.3 µM
- TGI [3]: > 100 µM
- GI50 [4]: > 100 µM
- TGI [4]: > 100 µM
- GI50 [5]: 39.6 µM
- TGI [5]: > 100 µM
- GI50 [6]: 19.9 µM
- TGI [6]: 54 µM
- GI50 [7]: 22.7 µM
- TGI [7]: 54.1 µM
- GI50 [8]: 30.4 µM
- TGI [8]: 88.6 µM
- GI50 [9]: 72.6 µM
- TGI [9]: > 100 µM
- GI50 [10]: 35.8 µM
- TGI [10]: 93 µM

SMILES: N#Cc1ccnc(N2C(=O)CC[C@H]2C(=O)N(c2cncc(F)c2)[C@H](C(=O)NC2CC(F)(F)C2)c2ccccc2Cl)c1
- GI50 [1]: > 100 µM
- TGI [1]: > 100 µM
- GI50 [2]: 44.5 µM
- TGI [2]: > 100 µM
- GI50 [3]: 67 µM
- TGI [3]: > 100 µM
- GI50 [4]: 30.5 µM
- TGI [4]: > 100 µM
- GI50 [5]: 73.3 µM
- TGI [5]: > 100 µM
- GI50 [6]: > 100 µM
- TGI [6]: > 100 µM
- GI50 [7]: > 100 µM
- TGI [7]: > 100 µM
- GI50 [8]: 56.2 µM
- TGI [8]: > 100 µM
- GI50 [9]: > 100 µM
- TGI [9]: > 100 µM
- GI50 [10]: > 100 µM
- TGI [10]: > 100 µM

SMILES: CC(C)(C)c1ccc(C(O)c2ccc(C(C)(C)C)cc2)cc1
- TGI [1]: 28.4 µM
- TGI [2]: 30.6 µM
- TGI [3]: 29.1 µM
- TGI [4]: 39.2 µM
- TGI [5]: 26.6 µM
- TGI [6]: 22 µM
- TGI [7]: 30.5 µM
- TGI [8]: 34.6 µM
- TGI [9]: 29.4 µM
- TGI [10]: 27.8 µM

SMILES: C[C@H]1[C@H](C)CC[C@]2(C(=O)O)CC[C@]3(C)C(=CC[C@@H]4[C@@]5(C)C/C(=C/c6ccco6)C(=O)C(C)(C)[C@@H]5CC[C@]43C)[C@H]12
- GI50 [1]: 4.55 µM
- TGI [1]: 18 µM
- GI50 [2]: 5.19 µM
- TGI [2]: 21.7 µM
- GI50 [3]: 3.82 µM
- TGI [3]: 15.6 µM
- GI50 [4]: 3.17 µM
- TGI [4]: 14 µM
- GI50 [5]: 3.37 µM
- TGI [5]: 11.9 µM
- GI50 [6]: 6.35 µM
- TGI [6]: 23.6 µM
- GI50 [7]: 7.59 µM
- TGI [7]: 21 µM
- GI50 [8]: 5.59 µM
- TGI [8]: 22.1 µM
- GI50 [9]: 10.1 µM
- TGI [9]: 30.4 µM
- GI50 [10]: 5.83 µM
- TGI [10]: 33.9 µM
